{"source": "patent US20250302795A1", "about": "“SMALL MOLECULE COMPOUNDS WITH NEGATIVE REGULATORY EFFECTS ON Nrf2 SIGNALING [sequence] AND THEIR POTENTIAL APPLICATIONS” (Beijing Hebabiz Biotechnology Co., Inc., priority 2022, published 2025)", "type_in_all_cases": "in vivo, rat", "key": {"[1]": {"assay": "Body weight of rats, high-fat diet non-alcoholic steatohepatitis model", "conditions": "positive control group, in g (unit assumed)", "procedure": "(§1) The normal control group was fed a standard diet for twelve weeks while the other groups were fed a high-fat diet consisting of 88% basal diet+10% lard+2% cholesterol for twelve weeks. After establishing the model, the drug groups received their respective treatments at a dosage of 10 ml/kg while the normal and model groups received an equal volume of 0.5% CMC-Na solution. The rats were provided with ad libitum access to water and food, while the animal chamber was maintained under controlled conditions of quietness, natural lighting, a temperature of 25±0.5° C., and a humidity level of 55±5%. The rats' body weights were measured once per week and recorded.\nThe rats were weighed weekly to monitor the fluctuations in body weight within each experimental group."}, "[2]": {"system": "rats with non-alcoholic steatohepatitis induced by high-fat diet", "assay": "Serum biochemical indices, non-alcoholic steatohepatitis model induced by high-fat diet", "conditions": "end of 8th week of administration, positive control group", "procedure": "as §1, with “After” for “The normal control group was fed a standard diet for twelve weeks while the other groups were fed a high-fat diet consisting of 88% basal diet+10% lard+2% cholesterol for twelve weeks. After”\nAt the end of the 8th week of administration, all rats were anesthetized with a 20% ulinastatin solution (10 ml/kg) via an intraperitoneal injection after the final administration. Subsequently, blood was collected from the abdominal aorta post-anesthesia. After standing for 1 hour, the blood was centrifuged at 4° C. and 3000 r/min for 15 minutes to obtain the upper serum fraction which was then stored at −80° C. Following the instructions provided by the biochemical index detection kit, levels of HDL-C, LDL-C, NEFA, AST, ALT, UA, TC, TG, FPG and FINS in rat serum were determined."}, "[3]": {"system": "rats with nonalcoholic steatohepatitis induced by a high-fat diet and CCl4", "assay": "Serum biochemical indices, high-fat diet and CCl4 model", "conditions": "end of tenth week of administration, positive control group", "procedure": "Starting from the seventh week, they received subcutaneous injections of a 30% CCl4 olive oil solution at a dosage of 0.2 ml/100 g behind their back twice per week for a total of four times. Once the model was successfully replicated, the corresponding drugs were administered orally (10 ml/kg) in each treatment group, and both the normal control group and the model group received equal volumes of a 0.5% CMC-Na solution once daily for ten consecutive weeks. Throughout the experimental period, the rats were provided with ad libitum access to food and water, while the animal chamber was maintained under controlled conditions of quietness, natural lighting, a temperature of 25±0.5° C., and a humidity level of 55±5%. The rats' body weights were measured once per week and recorded.\nAt the end of the tenth week of administration, all rats underwent a 16-hour fasting period following their final administration and were intraperitoneally injected with a 20% ulinastatin solution (10 ml/kg) for anesthesia. Subsequently, blood samples were collected from the abdominal aorta and allowed to stand for one hour, and then centrifuged at 4° C. for fifteen minutes at a speed of 3000 r/min. Finally, the upper serum was stored at −80° C. Following the instructions provided with the biochemical index detection kit, levels of HDL-C, LDL-C, NEFA, AST, ALT, UA, TC, TG, PCIII, IV-C LN and HA in rat serum were determined.\nAccording to the kit instructions, the concentration of fasting plasma glucose (FPG) in serum was determined using colorimetry, while the concentration of fasting insulin (FINS) in serum was measured through radioimmunoassay."}, "[4]": {"system": "rats with non-alcoholic steatohepatitis induced by high-fat diet", "assay": "Liver indices, non-alcoholic steatohepatitis model induced by high-fat diet", "procedure": "as §1\n(3) Liver indices was determined by dividing the wet weight of the liver by the body weight of rats and multiplying by 100%, after liver tissue was isolated, washed with normal saline, dried using filter paper, and weighed following blood sampling from the abdominal aorta. (4) HE staining and oil red staining were performed on liver tissue samples obtained from the abdominal aorta of rats. The tissue was fixed in 10% neutral formalin, followed by embedding, slicing, dewaxing, staining, transparency treatment, and sealing using routine procedures. Microscopic examination was conducted to observe the pathological changes in rat liver tissues across different groups. Additionally, the NASH-CRN scoring system was employed to assess NAS scores. (5) Detection of Proteins Associated with Non-Alcoholic Steatohepatitis"}}, "data": [{"smiles": "COC(=O)c1cc(OC)c2c(c1-c1c(CO)cc(OC)c3c1OCO3)OCO2", "note": "[Bicyclol]", "values": [{"measurement": "body weight", "setting": "[1]; week 0 (pre-administration)", "result": "195.09 ± 3.95"}, {"measurement": "body weight", "setting": "[1]; week 1 (pre-administration)", "result": "254.99 ± 12.09"}, {"measurement": "body weight", "setting": "[1]; week 2 (pre-administration)", "result": "307.37 ± 12.92"}, {"measurement": "body weight", "setting": "[1]; week 3 (pre-administration)", "result": "343.86 ± 17.21"}, {"measurement": "body weight", "setting": "[1]; week 4 (pre-administration)", "result": "379.51 ± 22.29"}, {"measurement": "body weight", "setting": "[1]; week 5 (pre-administration)", "result": "413.81 ± 26.94"}, {"measurement": "body weight", "setting": "[1]; week 6 (pre-administration)", "result": "444.77 ± 32.35"}, {"measurement": "body weight", "setting": "[1]; week 7 (pre-administration)", "result": "461.64 ± 35.88"}, {"measurement": "body weight", "setting": "[1]; week 8 (pre-administration)", "result": "493.67 ± 41.04"}, {"measurement": "body weight", "setting": "[1]; week 9 (pre-administration)", "result": "510.27 ± 41.17"}, {"measurement": "body weight", "setting": "[1]; week 10 (pre-administration)", "result": "526.93 ± 47.38"}, {"measurement": "body weight", "setting": "[1]; week 11 (pre-administration)", "result": "541.47 ± 50.20"}, {"measurement": "body weight", "setting": "[1]; week 12 (pre-administration)", "result": "550.05 ± 58.70"}, {"measurement": "body weight", "setting": "[1]; week 13", "result": "526.35 ± 68.66"}, {"measurement": "body weight", "setting": "[1]; week 14", "result": "515.27 ± 58.62"}, {"measurement": "body weight", "setting": "[1]; week 15", "result": "519.07 ± 54.38"}, {"measurement": "body weight", "setting": "[1]; week 16", "result": "539.33 ± 58.40"}, {"measurement": "body weight", "setting": "[1]; week 17", "result": "562.79 ± 61.59"}, {"measurement": "body weight", "setting": "[1]; week 18", "result": "588.75 ± 70.94"}, {"measurement": "body weight", "setting": "[1]; week 19", "result": "593.71 ± 72.81"}, {"measurement": "body weight", "setting": "[1]; week 20", "result": "586.53 ± 112.38"}, {"measurement": "HOMA-IR", "setting": "[2]; FPG x FINS/22.5", "result": 1.04}, {"measurement": "ALT", "setting": "[2]; serum", "result": 547.14, "unit": "U/L"}, {"measurement": "AST", "setting": "[2]; serum", "result": 19.65, "unit": "U/L"}, {"measurement": "HDL-C", "setting": "[2]; serum", "result": 1.34, "unit": "mmol/L"}, {"measurement": "LDL-C", "setting": "[2]; serum", "result": 0.91, "unit": "mmol/L"}, {"measurement": "NEFA", "setting": "[2]; serum", "result": 0.92, "unit": "mmol/L"}, {"measurement": "TC", "setting": "[2]; serum", "result": 2.76, "unit": "mmol/L"}, {"measurement": "TG", "setting": "[2]; serum", "result": 0.83, "unit": "mmol/L"}, {"measurement": "UA", "setting": "[2]; serum", "result": 81.3, "unit": "µmol/L"}, {"measurement": "HOMA-IR", "setting": "[3]; FPG x FINS/22.5", "result": 5.48}, {"measurement": "ALT", "setting": "[3]; serum", "result": 44.39, "unit": "U/L"}, {"measurement": "AST", "setting": "[3]; serum", "result": 66.96, "unit": "U/L"}, {"measurement": "HDL-C", "setting": "[3]; serum", "result": 1.29, "unit": "mmol/L"}, {"measurement": "LDL-C", "setting": "[3]; serum", "result": 0.90, "unit": "mmol/L"}, {"measurement": "NEFA", "setting": "[3]; serum", "result": 0.77, "unit": "mmol/L"}, {"measurement": "TC", "setting": "[3]; serum", "result": 1.85, "unit": "mmol/L"}, {"measurement": "TG", "setting": "[3]; serum", "result": 0.63, "unit": "mmol/L"}, {"measurement": "UA", "setting": "[3]; serum", "result": 126, "unit": "µmol/L"}, {"measurement": "liver indices versus model group (in words)", "setting": "[4]; NR218 at high, medium and low doses, P<0.01 or P<0.05", "result": "significant decrease compared to the model group"}, {"measurement": "Liver Indices", "setting": "[4]; high-fat diet model, positive control group", "result": "3.77 ± 1.17", "unit": "%"}]}]}
